Data as given in ChEMBL document CHEMBL2029312, “The antibacterial activity of 4,4'-bipyridinium amphiphiles with conventional, bicephalic and gemini architectures” (Bioorg Med Chem Lett, 2012).

Legend:
[1] = test system: Staphylococcus aureus; test: Antibacterial activity against Staphylococcus aureus subsp. aureus ATCC 29213 after 72 hrs by broth microdilution method; format: functional
[2] = test system: Enterococcus faecalis; test: Antibacterial activity against Enterococcus faecalis ATCC 29212 after 72 hrs by broth microdilution method; format: functional
[3] = test system: Escherichia coli; test: Antibacterial activity against Escherichia coli ATCC 25922 after 72 hrs by broth microdilution method; format: functional
[4] = test system: Pseudomonas aeruginosa; test: Antibacterial activity against Pseudomonas aeruginosa Boston 41501 ATCC 27853 after 72 hrs by broth microdilution method; format: functional
[5] = Solubility of the compound in water; format: physicochemical; conditions: buffer
[6] = test system: Staphylococcus aureus; test: Ratio of benzalkonium chloride MIC to compound MIC for Staphylococcus aureus subsp. aureus ATCC 29213; format: functional
[7] = test system: Enterococcus faecalis; test: Ratio of benzalkonium chloride MIC to compound MIC for Enterococcus faecalis ATCC 29212; format: functional
[8] = test system: Escherichia coli; test: Ratio of benzalkonium chloride MIC to compound MIC for Escherichia coli ATCC 25922; format: functional
[9] = test system: Pseudomonas aeruginosa; test: Ratio of benzalkonium chloride MIC to compound MIC for Pseudomonas aeruginosa Boston 41501 ATCC 27853; format: functional
[10] = Staphylococcus aureus, ATCC 29213, 72 h, read-out: MIC
[11] = Enterococcus faecalis, ATCC 29212, 72 h, read-out: MIC
[12] = Escherichia coli, ATCC 25922, 72 h, read-out: MIC
[13] = Pseudomonas aeruginosa, Boston 41501 ATCC 27853, 72 h, read-out: MIC

| Compound | MIC [1, 10] [µM] | MIC [2, 11] [µM] | MIC [3, 12] [µM] | MIC [4, 13] [µM] | solubility [5] | MIC [1] [µM] | MIC [2] [µM] | MIC [3] [µM] | MIC [4] [µM] | Ratio [6] | Ratio [7] | Ratio [8] | Ratio [9] |
| --- | --- | --- | --- | --- | --- | --- | --- | --- | --- | --- | --- | --- | --- |
| CCCCCCCCCCCC[n+]1ccc(-c2cc[n+](C)cc2)cc1.[Br-].[I-] | 31 | 63 | 125 | 250 | Insoluble |  |  |  |  |  |  |  |  |
| CCCCCCCCCCCC[n+]1ccc(-c2cc[n+](CCCCCCCCCCCC)cc2)cc1.[I-].[I-] |  |  |  |  | Insoluble | 8 | 16 | 16 | 31 |  |  |  |  |
| CCCCCCCCCCCCCCCC[n+]1ccc(-c2ccncc2)cc1.[Br-] | 8 | 16 | 63 | > 250 | Insoluble |  |  |  |  |  |  |  |  |
| CCCCCCCCCCCCCCCC[n+]1ccc(-c2cc[n+](CCCCCCCCCCCCCCCC)cc2)cc1.[I-].[I-] |  |  |  |  | Insoluble | >250 | >250 | >250 | >250 |  |  |  |  |
| C[n+]1ccc(-c2cc[n+](C)cc2)cc1 | > 250 | > 250 | > 250 | > 250 |  |  |  |  |  |  |  |  |  |
| CCCCCCCCCCCCCCCC[n+]1ccc(-c2cc[n+](CCCCCC)cc2)cc1 | 2 | 8 | 8 | 31 |  |  |  |  |  |  |  |  |  |
| CCCCCCCCCCCCCCCC[n+]1ccc(-c2cc[n+](CCCCCCCCCCCCCCCC)cc2)cc1.[Cl-].[Cl-] |  |  |  |  | Insoluble | >250 | >250 | >250 | >250 |  |  |  |  |
| CCCCCCCCCCCCCCCCCC[n+]1ccc(-c2ccncc2)cc1.[Br-] | 16 | 31 | > 250 | > 250 | Insoluble |  |  |  |  |  |  |  |  |
| CCCCCCCCCCCCCC[n+]1ccc(-c2cc[n+](CCCCCCCC)cc2)cc1 | 2 | 2 | 2 | 16 |  |  |  |  |  |  |  |  |  |
| CCCCCCCC[n+]1ccc(-c2cc[n+](CCCCCCCC)cc2)cc1 | 125 | 250 | > 250 | > 250 |  |  |  |  |  |  |  |  |  |
| CCCCCCCCCCCCCCCCCC[n+]1ccc(-c2cc[n+](CCCCCCCCCCCCCCCCCC)cc2)cc1.[Br-].[Br-] | > 250 | > 250 | > 250 | > 250 | Insoluble |  |  |  |  |  |  |  |  |
| CCCCCCCCCCCCCC[n+]1ccc(-c2ccncc2)cc1 | 8 | 16 | 31 | 125 |  |  |  |  |  |  |  |  |  |
| CCCCCCCCCCCCCCCC[n+]1ccc(-c2cc[n+](CC)cc2)cc1.[Br-].[Br-] | 16 | 63 | 63 | 250 | Insoluble |  |  |  |  |  |  |  |  |
| CCCCCCCCCCCCCC[n+]1ccc(-c2cc[n+](C)cc2)cc1.[Br-].[I-] | 4 | 31 | 63 | 125 | Insoluble |  |  |  |  |  |  |  |  |
| CCCCCCCCCCCC[n+]1ccc(-c2cc[n+](CCCCCCCCCCCC)cc2)cc1.[Br-].[Br-] |  |  |  | 31 |  | 2 | 4 | 4 |  |  |  |  |  |
| CCCCCCCCCCCCCC[n+]1ccc(-c2cc[n+](CCCCCCCCCCCCCC)cc2)cc1.[Br-].[Br-] | 16 | 31 | 250 | > 250 | Insoluble |  |  |  |  |  |  |  |  |
| CCCCCCCCCCCC[n+]1ccc(-c2ccncc2)cc1 | 16 | 63 | 63 | > 250 |  |  |  |  |  |  |  |  |  |
| CCCCCCCCCCCCCC[n+]1ccc(-c2cc[n+](CC)cc2)cc1 | 8 | 31 | 63 | 250 |  |  |  |  |  |  |  |  |  |

| Compound | MIC [1, 10] [µM] | MIC [2, 11] [µM] | MIC [3, 12] [µM] | MIC [4, 13] [µM] | solubility [5] | MIC [1] [µM] | MIC [2] [µM] | MIC [3] [µM] | MIC [4] [µM] | Ratio [6] | Ratio [7] | Ratio [8] | Ratio [9] |
| --- | --- | --- | --- | --- | --- | --- | --- | --- | --- | --- | --- | --- | --- |
| CCCCCCCCCCCCCCCC[n+]1ccc(-c2cc[n+](C)cc2)cc1.[Br-].[I-] | 4 | 31 | 31 | 125 | Insoluble |  |  |  |  |  |  |  |  |
| CCCCCCCCCCCC[n+]1ccc(-c2cc[n+](CCCCCCCCCCCC)cc2)cc1.[Cl-].[Cl-] |  |  |  |  |  | 2 | 4 | 4 | 16 |  |  |  |  |
| CCCCCCCCCC[n+]1ccc(-c2cc[n+](CCCCCCCCCC)cc2)cc1.[Cl-].[Cl-] |  |  |  |  |  | 2 | 4 | 8 | 63 |  |  |  |  |
| CCCCCCCCCCC[n+]1ccc(-c2cc[n+](CCCCCCCCCCC)cc2)cc1.[Cl-].[Cl-] |  |  |  |  |  | 2 | 2 | 2 | 8 |  |  |  |  |
| CCCCCCCCCCCCCCCC[n+]1ccc(-c2cc[n+](CCCCCCCCCCCCCCCC)cc2)cc1.[Br-].[Br-] | 250 | > 250 | > 250 | > 250 | Insoluble |  |  |  |  |  |  |  |  |
| CCCCCCCCCCCCCCCCCC[n+]1ccc(-c2cc[n+](C)cc2)cc1.[Br-].[I-] | 8 | 31 | 31 | 63 | Insoluble |  |  |  |  |  |  |  |  |
| CCCCCCCCCCCC[n+]1ccc(-c2cc[n+](CCCCCCCCCC)cc2)cc1 | 2 | 2 | 2 | 8 |  |  |  |  |  |  |  |  |  |
| CCCCCCCCCCCCCCCCCCCC[n+]1ccc(-c2cc[n+](CC)cc2)cc1 | 16 | 31 | 125 | > 250 |  |  |  |  |  |  |  |  |  |
| CCCCCCCCCCCC[n+]1ccc(-c2cc[n+](CC)cc2)cc1 | 63 | 250 | 250 | > 250 |  |  |  |  |  |  |  |  |  |
| CCCCCCCCCC[n+]1ccc(-c2cc[n+](CCCCCCCCCC)cc2)cc1 | 2 | 4 | 8 | 63 |  |  |  |  |  |  |  |  |  |
| CCCCCCCCCCCCC[n+]1ccc(-c2cc[n+](CCCCCCCCCCCCC)cc2)cc1.[Br-].[Br-] | 8 | 8 | 16 | 250 | Insoluble |  |  |  |  |  |  |  |  |
| CCCCCCCCCCCCCCCCCCCC[n+]1ccc(-c2cc[n+](C)cc2)cc1.[Br-].[I-] | 16 | 31 | 125 | > 250 | Insoluble |  |  |  |  |  |  |  |  |
| CCCCCCCCCC[n+]1ccc(-c2cc[n+](CCCCCCCCCC)cc2)cc1.[I-].[I-] |  |  |  |  | Insoluble | 2 | 4 | 8 | 63 |  |  |  |  |
| CCCCCCCCCCCCCCCCCCCC[n+]1ccc(-c2ccncc2)cc1.[Br-] | > 250 | > 250 | > 250 | > 250 | Insoluble |  |  |  |  |  |  |  |  |
| CCCCCCCCCCCCCCCCCC[n+]1ccc(-c2cc[n+](CC)cc2)cc1 | 8 | 31 | 31 | 125 |  |  |  |  |  |  |  |  |  |
| CCCCCCCCCCCCCCCCCC[n+]1ccc(-c2cc[n+](CCCC)cc2)cc1 | 8 | 31 | 31 | 125 |  |  |  |  |  |  |  |  |  |
| CCCCCCCCCCC[n+]1ccc(-c2cc[n+](CCCCCCCCCCC)cc2)cc1.[Br-].[Br-] | 2 |  |  |  |  |  | 2 | 2 | 16 | 4 | 4 | 4 | 4 |
| CCCCCCCCCCC[n+]1ccc(-c2cc[n+](CCCCCCCCCCC)cc2)cc1.[I-].[I-] |  |  |  |  | Insoluble | 4 | 8 | 8 | 63 |  |  |  |  |
